Reference: EP2349249B1, “SYNERGISTIC COMPOSITION FOR RECOVERY AND REDUCTION OF MILD ISCHEMIC DAMAGE” (Giellepi S.p.A., priority 2008, dated 2010)

Key:
[1] = test system: H9c2 cells; assay: MTT cell viability assay in doxorubicin-treated cells; format: cell-based; conditions: H9c2 cells treated for 24 hours with 0.5 µM doxorubicin; for minimal effective concentration: Rattus norvegicus, MTT dose-response curve, read-out: minimum effective concentration required to improve viability (sufficient to induce protection)
Protocol: Cells were seeded at a concentration of 1.8x10^3/well in 96-well plates and incubated at 37°C for 24 hours. Cells were then incubated for additional 24 hours after addition of water or doxorubicin (0.5 µM final concentration) in presence of different concentrations of Cr and/or Rib, as indicated in the figures. Cell viability was determined by the 2-(4,5-dimethyltriazol-2-yl)-2,5-diphenyl tetrazolium bromide assay (MTT, Sigma, St Louis, Mo). Briefly, after addition to each well of 20µl of the MTT solution in PBS at a concentration of 5 mg/ml, cells were incubated at 37°C for 4 hours. After removal of the supernatant, 100 µl of DMSO were added to dissolve the formazan salts produced and optical density (OD) was read at λ=540 nm. For each treatment, five replicates were performed. The viability index was calculated, for each treatment, as ODx/OD0, where ODx and OD0 are the average ODs at time x and at time zero.
The optimal working concentration was determined by a dose-response curve using the MTT assay (vital dye staining) in presence of Creatine and Ribose. To test the efficacy of creatine and ribose in maintaining cellular energy homeostasis, H9c2 cells were treated with doxorubicin, a well-known cardiotoxic agent that causes mitochondrial damage resulting in production of reactive oxygen species.

[2] = test system: H9c2 cells; assay: Cell cycle profile by flow cytometry (propidium iodide) in simulated ischemia; format: cell-based; conditions: ischemic H9c2 cells; 2.5 mM Creatine and/or 5 mM Ribose
Protocol: The cell cycle profile was analyzed by flow cytometry after DNA staining with propidium iodide (PI, Sigma, St. Louis, Mo.). Cells were washed with PBS and fixed with 70% ethanol at -20°C, centrifuged (15 min at 1800 rpm), resuspended in 1 ml PBS containing 50 µg/ml PI and incubated for 1 hour at room temperature Cells were then analyzed by flow cytometry in a FACSorter (Becton Dickinson). The percentage of cells in different phases of the cell cycle was calculated using the CellQuest software program (Becton Dickinson).

## CN(CC(=O)O)C(=N)N.O [Creatine, Creatine monohydrate]
[1]
  minimal effective concentration: 2500 µM
[2]
  change of the percentage of cells progressing from G1 to S phase: did not change

## O=C[C@H](O)[C@H](O)[C@H](O)CO [Ribose, D-ribose]
[1]
  minimal effective concentration: 5000 µM
[2]
  change of the percentage of cells progressing from G1 to S phase: did not change

## COc1cccc2c1C(=O)c1c(O)c3c(c(O)c1C2=O)C[C@@](O)(C(=O)CO)C[C@@H]3O[C@H]1C[C@H](N)[C@H](O)[C@H](C)O1 [Doxo, doxorubicin, reference compound]
[1]; MTT
  decrease of viability compared to untreated cells: 35%
